The values below come from patent US11530244B2, “Cyclic polypeptides for PCSK9 inhibition” (priority 2018, dated 2022).

For test [1], the target named is T1, PCSK9 (Homo sapiens (Human), UniProt Q8NBP7). The experiment in a line: PCSK9 Alexa FRET Standard assay (displacement of AlexaFluor647 tagged cyclic peptide Reagent A). It counts as binding. Particulars: 0.5 nM PCSK9, 20 nM AF cyclic peptide Reagent A. The essentials: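 TR-FRET displacement: 0.5 nM biotinylated PCSK9 with 1.25 nM Strep-Eu and 20 nM AlexaFluor-tagged cyclic peptide (final) in 50 mM HEPES pH 7.4, 0.15 M NaCl, 5 mM CaCl2, 0.01% BSA, 0.01% P20, ≥2 h at room temperature. IC50 from sigmoidal fit, converted to Ki via peptide KD; falling Eu counts flagged false positives.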

Test [2] addresses T1, PCSK9. Briefly: PCSK9 Alexa FRET Plus assay (displacement of AlexaFluor647 tagged cyclic peptide Reagent B). Conditions: 0.5 nM PCSK9, 960 nM AF cyclic peptide Reagent B. It counts as binding. How it is done: A solution containing 1 nM biotinylated PCSK9+2.5 nM Lance Streptavidin Europium (Strep-Eu) was made in 50 mM HEPES pH 7.4, 0.15 M NaCl, 5 mM CaCl2), 0.01% BSA, and 0.01% Surfactant P20. A separate solution containing 1920 nM of the AlexaFluor tagged cyclic peptide was made in the same buffer system. An Echo was used to transfer 0.075 ul of compound plus 0.675 ul of DMSO to each well of an assay plate followed by the addition of 15 ul of PCSK9+Stept-Eu and 15 ul of AF peptide. The final assay volume was 30.750 ul containing 0.5 nM PCSK9, 1.25 nM Strep-Eu, and 960 nM AF cyclic peptide. The reaction was incubated at room temperature for at least two hours prior to fluorescence measurements using an Envision Multilabel Reader. IC50 values were determined by fitting data to a sigmoidal dose-response curve using nonlinear regression. Ki was then calculated from the IC50 and the KD of AF cyclic peptide. Counts (B-counts) of the europium-labeled PCSK9 were followed to observe if compounds were adversely affecting PCSK9. A fall off of the B-counts likely indicated a false positive of inhibition. Data from this procedure was reported as “P=‘numerical value’ (nanomolar)”

[3] abbreviates: PCSK9 Alexa FRET Standard assay, read-out: IC50.
The mark [4] stands for this setting: Alexa FRET Plus, read-out: IC50.
[5] abbreviates: IC50, PCSK9 Alexa FRET Standard assay.

Structures are written as SMILES. Counter-ions that a name gives are not always drawn. Starred links: 1 amine or outer side, 2 acyl side, 3 side chain; linkers in the order of their positions; H or OH if unused. Positions of bridges follow the written chain, without caps; N, C: chain ends. Non-standard residues stand in square brackets, D forms with d. Residues, ends and D or L forms follow the SMILES beside them. *: point of attachment. X29 = O=C([C@H](Cc1ccc(CC=[*:3])cc1)N[*:1])[*:2]; X32 = O=C(CCc1cccc2c1oc1c(CCN[*:1])cccc12)[*:2]; Trp(5-F) = N[C@@H](Cc1c[nH]c2ccc(F)cc12)C(=O)O; Pro(cis-4-F) = O=C(O)[C@@H]1C[C@H](F)CN1; Hag = O=C([C@H](CCC=[*:3])N[*:1])[*:2]; mXylylene = c1cc(C[*:1])cc(C[*:2])c1; AEF = NCCOc1ccc(C[C@H](N)C(=O)O)cc1; αMeP = C[C@@]1(C(=O)O)CCCN1; Isobutyryl = CC(C)C(=O)*; Tfa = O=C(C(F)(F)F)*; Mpa = O=C(O)CCS

T1 sequence (Q8NBP7 153-692): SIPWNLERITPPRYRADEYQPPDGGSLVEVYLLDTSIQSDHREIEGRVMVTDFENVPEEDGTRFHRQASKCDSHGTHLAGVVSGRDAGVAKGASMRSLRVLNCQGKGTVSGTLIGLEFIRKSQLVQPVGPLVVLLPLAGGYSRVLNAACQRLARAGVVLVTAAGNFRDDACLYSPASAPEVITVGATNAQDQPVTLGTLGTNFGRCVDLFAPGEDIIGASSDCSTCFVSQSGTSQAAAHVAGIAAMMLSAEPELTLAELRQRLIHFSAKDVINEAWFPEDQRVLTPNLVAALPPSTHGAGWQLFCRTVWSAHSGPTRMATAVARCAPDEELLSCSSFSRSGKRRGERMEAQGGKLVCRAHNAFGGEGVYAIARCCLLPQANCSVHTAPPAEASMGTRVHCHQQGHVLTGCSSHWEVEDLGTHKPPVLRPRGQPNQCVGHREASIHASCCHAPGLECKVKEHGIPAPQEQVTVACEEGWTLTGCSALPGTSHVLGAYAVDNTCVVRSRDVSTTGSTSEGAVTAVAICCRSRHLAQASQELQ

As to `C[C@@]12CCCN1C(=O)[C@H](Cc1ccc(O)cc1)NC(=O)CCc1cccc3c1Oc1c(cccc1-3)CCNC(=O)[C@H](Cc1c[nH]c3ccc(F)cc13)NC(=O)[C@H](Cc1c[nH]c3ccc(F)cc13)NC(=O)CNC(=O)[C@H](CCCCN)NC(=O)CCSCc1cccc(c1)CSC[C@H](C(N)=O)NC2=O` [Compound 120] ([Mpa]KG[Trp(5-F)][Trp(5-F)][X32]Y[αMeP][dC]-NH2; linker 1-9 via mXylylene), the IC50 (as a rule, the midpoint of a concentration-inhibition curve) lay within 1 to 12.1 µM in test [1] (setting [3]) and 0.5 to 5 µM in test [2] (setting [4]).
As to `C[C@@]12CCCN1C(=O)[C@H](Cc1ccc(O)cc1)NC(=O)CN1C(=O)[C@H](N=C(c3ccccc3)c3ccccc31)NC(=O)[C@H](Cc1c[nH]c3ccc(F)cc13)NC(=O)[C@H](Cc1c[nH]c3ccc(F)cc13)NC(=O)CNC(=O)[C@H](CCCCN)NC(=O)CCSCc1cccc(c1)CSC[C@@H](C(N)=O)NC2=O` [Compound 121], the IC50 in test [1] (setting [5]) lay within 0.00011 to 0.1 µM; in test [2] (IC50, Alexa FRET Plus) it was 0.0001 to 0.1 µM.
On the same counts, the results for `C[C@@]12CCCN1C(=O)[C@H](Cc1ccc(O)cc1)NC(=O)CN1C(=O)[C@@H](N=C(c3ccccc3)c3ccccc31)NC(=O)[C@H](Cc1c[nH]c3ccc(F)cc13)NC(=O)[C@H](Cc1c[nH]c3ccc(F)cc13)NC(=O)CNC(=O)[C@H](CCCCN)NC(=O)CCSCc1cccc(c1)CSC[C@@H](C(N)=O)NC2=O` [Compound 122] are 0.00011 to 0.1 µM and 0.0001 to 0.1 µM.
For `COc1ccc(C[C@@H]2NC(=O)[C@H]([C@@H](C)O)NC(=O)[C@@H]3C[C@H](F)CN3C(=O)[C@H](Cc3c[nH]c4ccc(F)cc34)NC(=O)[C@H](Cc3c[nH]c4ccc(F)cc34)NC(=O)[C@@H](C)NC(=O)[C@H](CCCCN)NC(=O)[C@@H](NC(=O)C(C)C)CC(=O)NCCOc3ccc(cc3)C[C@@H](C(N)=O)NC(=O)[C@]3(C)CCCN3C2=O)cc1` [Compound 123] (Isobutyryl-DK[dA][Trp(5-F)][Trp(5-F)][Pro(cis-4-F)]TY(Me)[αMeP][AEF]-NH2; lactam 1-10), the IC50 in test [1] (setting [3]) lay within 0.00011 to 0.1 µM; in test [2] (setting [4]) it was 0.0001 to 0.1 µM.
For the molecule `COc1ccc(C[C@@H]2NC(=O)[C@H]([C@@H](C)O)NC(=O)[C@@H]3C[C@H](F)CN3C(=O)[C@H](Cc3c[nH]c4ccc(F)cc34)NC(=O)[C@H](Cc3c[nH]c4ccc(F)cc34)NC(=O)[C@@H](C)NC(=O)[C@H](CCCCN)NC(=O)[C@@H](NC(=O)C(F)(F)F)CC(=O)NCCOc3ccc(cc3)C[C@@H](C(N)=O)NC(=O)[C@]3(C)CCCN3C2=O)cc1` [Compound 124] (Tfa-DK[dA][Trp(5-F)][Trp(5-F)][Pro(cis-4-F)]TY(Me)[αMeP][AEF]-NH2; lactam 1-10), the IC50 in test [1] (setting [3]) lay in the range of 0.00011 to 0.1 µM; in test [2] (setting [4]), 0.0001 to 0.1 µM.
On the same counts, the results for `C[C@@]12CCCN1C(=O)[C@H](Cc1ccc(O)cc1)NC(=O)CN1C(=O)[C@H](COc3ccccc31)NC(=O)[C@H](Cc1c[nH]c3ccc(F)cc13)NC(=O)[C@H](Cc1c[nH]c3ccc(F)cc13)NC(=O)CNC(=O)[C@H](CCCCN)NC(=O)CCSCc1cccc(c1)CSC[C@@H](C(N)=O)NC2=O` [Compound 126] are 0.00011 to 0.1 µM and 0.0001 to 0.1 µM.
Consider `C[C@@]12CCCN1C(=O)[C@H](Cc1ccc(O)cc1)NC(=O)CN1C(=O)[C@@H](N=C(C3CCCCC3)c3ccccc31)NC(=O)[C@H](Cc1c[nH]c3ccc(F)cc13)NC(=O)[C@H](Cc1c[nH]c3ccc(F)cc13)NC(=O)CNC(=O)[C@H](CCCCN)NC(=O)CCSCc1cccc(c1)CSC[C@@H](C(N)=O)NC2=O` [Compound 129], for which the IC50 in test [1] (setting [3]) lay within 0.00011 to 0.1 µM; in test [2] (setting [4]), 0.5 to 5 µM.
On to `CCCCCCCCCCCCCCCC(=O)N[C@@H](CCC(=O)NCCOCCOCC(=O)NCCOCCOCC(=O)NCCCC[C@H](NC(C)=O)C(=O)NCCOCCOCC(=O)N[C@@H]1CSCc2cccc(c2)CSC[C@@H](C(N)=O)NC(=O)[C@]2(C)CCCN2C(=O)[C@H](Cc2ccc(O)cc2)NC(=O)[C@H]([C@@H](C)O)NC(=O)N2C[C@@H](F)C[C@H]2C(=O)[C@H](Cc2c[nH]c3ccc(F)cc23)NC(=O)[C@H](Cc2c[nH]c3ccc(F)cc23)NC(=O)[C@@H](C)NC(=O)[C@H](C)NC1=O)C(=O)O` [Compound 135], for which the half-inhibitory concentration (IC50) in test [1] (setting [3]) fell in the range of 0.00011 to 0.1 µM; in test [2] (setting [4]), 0.0001 to 0.1 µM.
Take `CCCCCCCCCCCCCCCC(=O)N[C@@H](CCC(=O)NCCOCCOCC(=O)NCCOCCOCC(=O)NCCCC[C@H](NC(C)=O)C(=O)NCCOCCOCCOCCOCCOCCOCCOCCOCCOCCOCCOCCOCCC(=O)N[C@@H]1CSCc2cccc(c2)CSC[C@@H](C(N)=O)NC(=O)[C@]2(C)CCCN2C(=O)[C@H](Cc2ccc(O)cc2)NC(=O)[C@H]([C@@H](C)O)NC(=O)N2C[C@@H](F)C[C@H]2C(=O)[C@H](Cc2c[nH]c3ccc(F)cc23)NC(=O)[C@H](Cc2c[nH]c3ccc(F)cc23)NC(=O)[C@@H](C)NC(=O)[C@H](C)NC1=O)C(=O)O` [Compound 136]: the IC50 in test [1] (setting [3]) lay within 0.00011 to 0.1 µM; in test [2] (setting [4]), 0.0001 to 0.1 µM.
Taken in the same sequence, the figures for `COc1ccc(C[C@@H]2NC(=O)[C@H]([C@@H](C)O)NC(=O)[C@@H]3C[C@H](F)CN3C(=O)[C@H](Cc3c[nH]c4ccc(F)cc34)NC(=O)[C@H](Cc3c[nH]c4ccc(F)cc34)NC(=O)[C@@H](C)NC(=O)[C@H](CCCCN)NC(=O)[C@@H](NC(C)=O)CCC/C=C\Cc3ccc(cc3)C[C@@H](C(N)=O)NC(=O)[C@]3(C)CCCN3C2=O)cc1` [Compound 137] were 21 to 50 µM and 0.5 to 5 µM.
Regarding `COc1ccc(C[C@@H]2NC(=O)[C@H]([C@@H](C)O)NC(=O)[C@@H]3C[C@H](F)CN3C(=O)[C@H](Cc3c[nH]c4ccc(F)cc34)NC(=O)[C@H](Cc3c[nH]c4ccc(F)cc34)NC(=O)[C@@H](C)NC(=O)[C@H](CCCCN)NC(=O)[C@@H](NC(C)=O)CC/C=C/Cc3ccc(cc3)C[C@@H](C(N)=O)NC(=O)[C@]3(C)CCCN3C2=O)cc1` [Compound 138] (Ac-[Hag]K[dA][Trp(5-F)][Trp(5-F)][Pro(cis-4-F)]TY(Me)[αMeP][X29]-NH2; staple (E) 1-10), the half-inhibitory concentration (IC50) is 0.1 to 1 µM in test [1] (setting [3]) and 0.5 to 5 µM in test [2] (setting [4]).
Turning to `C[C@@]12CCCN1C(=O)[C@H](Cc1ccc(O)cc1)NC(=O)N[C@H]1CCCc3ccc(cc31)C(=O)[C@H](Cc1c[nH]c3ccc(F)cc13)NC(=O)[C@H](Cc1c[nH]c3ccc(F)cc13)NC(=O)CNC(=O)[C@H](CCCCN)NC(=O)CCSCc1cccc(c1)CSC[C@@H](C(N)=O)NC2=O` [Compound 139], the figures for the IC50 in test [1] (setting [3]) and in test [2] (setting [4]) were 1 to 12.1 µM and 0.5 to 5 µM, respectively.
In the case of `C[C@@]12CCCN1C(=O)[C@H](Cc1ccc(O)cc1)NC(=O)N[C@@H]1CCCc3ccc(cc31)C(=O)[C@H](Cc1c[nH]c3ccc(F)cc13)NC(=O)[C@H](Cc1c[nH]c3ccc(F)cc13)NC(=O)CNC(=O)[C@H](CCCCN)NC(=O)CCSCc1cccc(c1)CSC[C@@H](C(N)=O)NC2=O` [Compound 140], the IC50 in test [1] (setting [3]) is 0.00011 to 0.1 µM; in test [2] (setting [4]) it was 0.1 to 0.5 µM.
As for `COc1ccc(C[C@@H]2NC(=O)[C@H]([C@@H](C)O)NC(=O)[C@@H]3C[C@H](F)CN3C(=O)[C@H](Cc3c[nH]c4ccc(F)cc34)NC(=O)[C@H](Cc3c[nH]c4ccc(F)cc34)NC(=O)[C@@H](C)NC(=O)[C@H](CCCCN)NC(=O)[C@@H](NC(C)=O)CCCCCc3ccc(cc3)C[C@@H](C(N)=O)NC(=O)[C@]3(C)CCCN3C2=O)cc1` [Compound 141], the values for the IC50 in test [1] (setting [3]) and in test [2] (setting [4]) were 0.1 to 1 µM and 0.5 to 5 µM, respectively.
As to `COc1ccc(C[C@@H]2NC(=O)[C@H](Cc3cnc[nH]3)NC(=O)[C@H](CC(=O)O)NC(=O)[C@H](Cc3c[nH]c4ccc(F)cc34)NC(=O)[C@H](Cc3c[nH]c4ccc(F)cc34)NC(=O)[C@@H](C)NC(=O)CCc3cn(nn3)-c3ccc(cc3)C[C@@H](C(N)=O)NC(=O)[C@]3(C)CCCN3C2=O)cc1` [Compound 416], the concentration for half-maximal inhibition (IC50) in test [1] (setting [3]) lay in the range of 0.00011 to 0.1 µM; in test [2] (setting [4]), 0.0001 to 0.1 µM.
